Experiments:
FzmQ (His6-FzmQ) = assay: spectrophotometric assay of CoA formation; type: biochemical, Streptomyces sp. NRRL S-149; conditions: read-out: Km (apparent); co-substrate acetyl-CoA
FzmM (His6-FzmM) = assay: steady-state kinetics of N-hydroxylation; type: biochemical, Streptomyces sp. NRRL S-149; conditions: read-out: Km (apparent); co-substrates O2, NADPH, FAD

Row | Km (FzmQ (His6-FzmQ)) [µM] | Km (FzmM (His6-FzmM)) [µM] | Structure (SMILES)
1 | 4.2 ± 0.8 |  | NNC(CC(=O)O)C(=O)O (centres unmarked) [hydrazinosuccinate]
2 |  | 790 ± 70 | N[C@@H](CC(=O)O)C(=O)O [L-Asp]

From publication PMC5215806 (Chemical Science, 2016)
